Test results reported in patent publication US20220031871A1, “ANTIBODIES FOR CHELATED RADIONUCLIDES AND CLEARING AGENTS” (Hoffmann-La Roche Inc., priority 2018, published 2022).

Legend:
[1] = tested on: BxPC3 tumors; test: Protocol 95: TCMC saturation, CA-to-antibody ratio, ^212Pb activity; format: in vivo, SCID mice; conditions: no CA, 24 h; for tumor accumulation: ±SD, n=3
Source text: In this study, nine different clearing agents based on dextran-500 were compared in terms of inhibition of ^212Pb-DOTAM association to tumors. More specifically, the experiment assessed the impact on tumor-associated radioactivity from i) TCMC saturation, ii) clearing agent-to-antibody ratio, and iii) production/purification method. In addition, the tumor uptake was compared after injection of 10 or 30 μCi of ^212Pb-DOTAM, without pretargeting or CA, to assess whether radioactivity saturation of the tumor was achieved already at the lower dose.
PRIT-0165 (100 μg per 100 μL) was administered i.v., followed three days later by dextran-500-based clearing reagents (10-170 μg per 100 μL) with varying TCMC substitution (10-100%). Groups J and K received PBS instead of clearing agent. Two hours later, mice were injected i.v. with 100 μL of the respective ^212Pb-DOTAM solutions (10 or 30 μCi).
Mice were sacrificed and necropsied 24 hours after injection of ^212Pb-DOTAM. Blood, bladder, spleen, kidneys, liver, lung, muscle, tail, and tumors were collected, weighed and measured for radioactivity content, and the % ID/g subsequently calculated.

[2] = tested on: s.c. BxPC3 tumors; test: Protocol 103: efficacy, biodistribution, tolerability of CEA-PRIT; format: in vivo, SCID mice
Description: Step 1: Administration of a BsAb (i.v. or i.p.): The BsAb used in the studies binds Pb-DOTAM with high affinity and targets the tumor e.g. via CEA.
Step 2: Administration of CA (i.v. or i.p.): To allow efficient tumor accumulation of ^212Pb-DOTAM, circulating BsAb needs to be neutralized in the blood using a CA that blocks ^212Pb-DOTAM binding to unbound BsAb, without penetrating into the tumor and consequently blocking the pretargeted sites. The CA is administered once the BsAb has accumulated to a sufficient degree in the tumor, generally after 4-10 days. […]
The body weight (BW) of the study animals was measured at least 3 times per week, with additional measurements as needed depending on the health status. […]
Blood was collected at termination from the venous sinus using retro-orbital bleeding, followed by additional tissue harvest for radioactive measurements and/or histological analysis, as mandated by the protocols. […] Organs and tissues collected for biodistribution purposes were weighed and measured for radioactivity using a 2470 WIZARD^2 automatic gamma counter (PerkinElmer), and the percent injected dose per gram of tissue (% ID/g) subsequently calculated, including corrections for decay and background. […]
where d indicates treatment day and 0 the baseline value. […] Tumor regression (TR) was calculated according to: […]

Compound NC(=O)CN1CCN(CC(N)=O)CCN(CC(N)=O)CCN(CC(N)=O)CC1.[212Pb+2] [^212Pb-DOTAM] has a tumor-to-blood ratio ([1]; 10 μCi ^212Pb-DOTAM) of 2.26±0.25, a tumor accumulation ([1]; 10 μCi ^212Pb-DOTAM) of 72.38±10.83 % ID/g and a tumor-to-blood ratio ([1]; 30 μCi ^212Pb-DOTAM) of 3.20±0.20. The tumor accumulation ([1]; 30 μCi ^212Pb-DOTAM) was 107.74±14.71 % ID/g, the BW loss ([2]; 10 μCi, even at multiple injections) was “mild” and the radioactivity level tolerability ([2]; 30 μCi under the applied conditions) was “approaching the maximum tolerated activity”.
